From US5922771A, “Benzocycloalkene compounds, their production and use” (Takeda Chemical Industries, Ltd., priority 1995, dated 1999)

Molecular target: melatonin receptor
Assay: Action of inhibiting 2-[^125 I]iodomelatonin binding
Design: species or system chicken (white leghorn)
Conditions: forebrain membranes of 7-day-old chickens; 80 pM 2-[^125 I]iodomelatonin; 90 minutes at 25° C., pH 7.7; read-out: IC50, inhibition of 2-[^125 I]iodomelatonin binding
Procedure: The forebrains of 7-day-old chickens (white leghorn) were homogenized with ice-cooled assay-buffer (50 mM Tris-HCl, pH 7.7, at 25° C.) and centrifuged at 44,000×g for 10 minutes to give pellet. The pellet was washed once with the same buffer solution, which was further homogenized with the assay-buffer to make a protein concentration of 0.3-0.4 mg/mL. The homogenate was used as a membrane sample. In a test tube, the membrane sample and a ligand (80 pM 2-[^125 I]iodomelatonin,ca. 100,000 dpm) were mixed to make the whole volume 0.5 mL. The mixture was incubated for 90 minutes at 25° C., to which was added 3 mL of ice-cooled assay buffer, immediately followed vacuum filtration on Whatman GF/B which was further washed twice with 3 mL each of ice-cold assay buffer. The radioactivity on the filter was determined by means of gamma-counter. Specific binding was calculated by subtracting the non-specific binding which was determined in the presence of 10 μM melatonin. The 50% inhibiting concentration (IC50) was determined by the log-probit analysis.

`COc1ccc2c(c1)C(CCNC(=O)C(F)(F)F)=C(c1ccccc1)C2` [Working Example 1, 2,2,2-Trifluoro-N-[2-(5-methoxy-2-phenyl-1H-inden-3-yl)ethyl]acetamide] showed an IC50 of 0.087 nM.
